In ChEMBL document CHEMBL1130438, “The Gif system as a tool in medicinal chemistry: The oxidation of Sch 57726 under GoAggIII conditions” (Bioorg Med Chem Lett, 1997) one finds IC50 data, which are given here for one compound.

One experiment has as its target Phosphodiesterase 3B (Bos taurus, UniProt E1BN64). Nature of the experiment: Inhibition of bovine heart phosphodiesterase 3.
In another experiment the target is Phosphodiesterase 1 (Bos taurus, UniProt Q01061+P14100). The experiment can be described thus: Inhibition of bovine aorta phosphodiesterase 1. It is filed as protein assay.
For experiment [1], the target named is cGMP-specific 3',5'-cyclic phosphodiesterase (Bos taurus, UniProt Q28156). The experiment can be described thus: Inhibition of bovine lung phosphodiesterase 5.
For another experiment, the target named is Phosphodiesterase 4 (Homo sapiens, UniProt P27815+Q08499+Q07343+Q08493). Nature of the experiment: Inhibition of phosphodiesterase 4. It is filed as protein assay.
The target of experiment [2] is cGMP-dependent 3',5'-cyclic phosphodiesterase (Homo sapiens, UniProt O00408). Nature of the experiment: Inhibition of phosphodiesterase 2.
Sequence of cGMP-dependent 3',5'-cyclic phosphodiesterase (O00408 whole entry): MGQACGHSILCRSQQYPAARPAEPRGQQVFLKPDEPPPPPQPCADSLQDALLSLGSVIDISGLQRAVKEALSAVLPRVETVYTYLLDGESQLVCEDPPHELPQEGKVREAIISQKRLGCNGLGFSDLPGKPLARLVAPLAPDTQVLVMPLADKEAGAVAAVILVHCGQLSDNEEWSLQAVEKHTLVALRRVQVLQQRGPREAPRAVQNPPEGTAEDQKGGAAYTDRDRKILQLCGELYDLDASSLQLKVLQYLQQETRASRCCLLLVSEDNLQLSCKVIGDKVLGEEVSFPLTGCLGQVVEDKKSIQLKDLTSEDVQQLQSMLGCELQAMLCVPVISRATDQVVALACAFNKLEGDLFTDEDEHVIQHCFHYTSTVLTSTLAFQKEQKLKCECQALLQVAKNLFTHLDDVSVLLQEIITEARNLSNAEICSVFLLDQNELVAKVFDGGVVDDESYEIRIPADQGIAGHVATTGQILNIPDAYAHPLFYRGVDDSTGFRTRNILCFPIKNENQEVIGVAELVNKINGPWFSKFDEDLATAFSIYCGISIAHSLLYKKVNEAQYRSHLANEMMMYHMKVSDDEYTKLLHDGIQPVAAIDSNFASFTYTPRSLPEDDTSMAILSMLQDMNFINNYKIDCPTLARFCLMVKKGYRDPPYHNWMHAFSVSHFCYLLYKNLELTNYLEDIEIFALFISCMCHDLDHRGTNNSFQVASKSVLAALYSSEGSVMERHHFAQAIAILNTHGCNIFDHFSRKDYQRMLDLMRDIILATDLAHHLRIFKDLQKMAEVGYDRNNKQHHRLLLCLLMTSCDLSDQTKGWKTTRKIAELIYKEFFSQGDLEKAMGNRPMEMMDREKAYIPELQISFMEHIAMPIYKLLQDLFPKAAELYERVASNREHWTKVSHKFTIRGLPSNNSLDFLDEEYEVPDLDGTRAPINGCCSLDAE

Bounds are passed on as bounds.

Sequence of Phosphodiesterase 3B (E1BN64 whole entry): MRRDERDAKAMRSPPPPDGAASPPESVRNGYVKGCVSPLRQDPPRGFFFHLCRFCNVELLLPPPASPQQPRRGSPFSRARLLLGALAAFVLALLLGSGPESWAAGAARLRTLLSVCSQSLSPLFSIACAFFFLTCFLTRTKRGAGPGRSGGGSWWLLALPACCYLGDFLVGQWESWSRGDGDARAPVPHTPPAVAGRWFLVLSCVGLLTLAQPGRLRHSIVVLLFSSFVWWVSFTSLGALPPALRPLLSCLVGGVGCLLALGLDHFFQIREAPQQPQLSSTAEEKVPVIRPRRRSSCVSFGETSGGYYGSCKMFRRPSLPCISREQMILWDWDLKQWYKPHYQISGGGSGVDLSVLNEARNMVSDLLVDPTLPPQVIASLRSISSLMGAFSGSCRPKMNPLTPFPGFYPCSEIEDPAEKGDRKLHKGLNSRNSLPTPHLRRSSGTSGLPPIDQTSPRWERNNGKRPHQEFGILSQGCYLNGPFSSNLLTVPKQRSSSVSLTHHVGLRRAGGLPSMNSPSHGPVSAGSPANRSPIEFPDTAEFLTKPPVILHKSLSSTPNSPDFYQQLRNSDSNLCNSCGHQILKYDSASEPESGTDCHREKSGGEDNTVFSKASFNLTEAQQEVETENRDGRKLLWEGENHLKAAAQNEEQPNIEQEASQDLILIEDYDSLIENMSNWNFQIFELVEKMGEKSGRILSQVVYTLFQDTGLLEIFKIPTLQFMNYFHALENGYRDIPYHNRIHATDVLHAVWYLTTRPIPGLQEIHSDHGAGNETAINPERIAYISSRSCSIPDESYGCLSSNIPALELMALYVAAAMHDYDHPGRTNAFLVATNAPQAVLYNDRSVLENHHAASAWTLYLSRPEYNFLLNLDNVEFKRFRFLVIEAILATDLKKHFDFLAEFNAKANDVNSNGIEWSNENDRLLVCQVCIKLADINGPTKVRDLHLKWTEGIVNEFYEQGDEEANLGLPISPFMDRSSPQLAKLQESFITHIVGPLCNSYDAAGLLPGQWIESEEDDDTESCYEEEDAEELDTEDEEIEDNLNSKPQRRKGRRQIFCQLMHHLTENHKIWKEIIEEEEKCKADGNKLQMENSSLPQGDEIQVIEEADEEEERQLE

By IC50 is commonly meant the concentration that gives 50% inhibition. A high value points to a need for much substance. Consider `CN1C(=O)c2c(nc(-c3ccc(C4CCCCC4)cc3)n2Cc2ccccc2)N2CC3(CCCC3)N=C12`, for which the IC50 at Phosphodiesterase 3B was > 100 µM; on Phosphodiesterase 1, 0.11 µM; in experiment [1], 0.19 µM; on Phosphodiesterase 4, 2.2 µM; in experiment [2] it was 17 µM.
